Reference: US20200264182A1, “METHOD FOR DETECTING PROSTATE CANCER” (J-OIL MILLS, INC., priority 2017, published 2020)
Where no end group is shown, it is not given here.

Legend:
[1] = FAC binding constant (Table 5 entry); conditions: Table 5: sugar chain having no fucose; at 25° C.
Procedure, shortened: (§1)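 Binding constants were measured by FAC at 25° C. The lectins tested were PhoSL, SRL, NSL and LSL, all fucose α1→6 specific, each run against a panel of sugar chains.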

FAC binding constant = conditions: at 25° C.
Procedure, shortened: as §1

[2] = sugar chain having fucose other than α1→6 fucose

Binding constant for sugar chain No. 728 [1]: <1000 M⁻¹
Binding constant for sugar chain No. 728 (FAC binding constant; Table 3: sugar chain having fucose other than α1→6 fucose): <1000 M⁻¹
Binding constant for sugar chain No. 419 (FAC binding constant; [2]): <1000 M⁻¹
Binding constant for sugar chain No. 420 (FAC binding constant; [2]): <1000 M⁻¹
Binding constant for sugar chain No. 718 (FAC binding constant; [2]): <1000 M⁻¹
Binding constant for sugar chain No. 719 (FAC binding constant; [2]): <1000 M⁻¹
Binding constant for sugar chain No. 720 (FAC binding constant; [2]): <1000 M⁻¹
Binding constant for sugar chain No. 721 (FAC binding constant; [2]): <1000 M⁻¹
Binding constant for sugar chain No. 722 (FAC binding constant; [2]): <1000 M⁻¹
Binding constant for sugar chain No. 723 (FAC binding constant; [2]): <1000 M⁻¹
Binding constant for sugar chain No. 726 (FAC binding constant; [2]): <1000 M⁻¹
Binding constant for sugar chain No. 727 (FAC binding constant; [2]): <1000 M⁻¹
Binding constant for sugar chain No. 729 (FAC binding constant; [2]): <1000 M⁻¹
Binding constant for sugar chain No. 730 (FAC binding constant; [2]): <1000 M⁻¹
Binding constant for sugar chain No. 731 (FAC binding constant; [2]): <1000 M⁻¹
Binding constant for sugar chain No. 739 (FAC binding constant; [2]): <1000 M⁻¹
Binding constant for sugar chain No. 909 (FAC binding constant; [2]): <1000 M⁻¹
Binding constant for sugar chain No. 910 (FAC binding constant; [2]): <1000 M⁻¹
Binding constant for sugar chain No. 931 (FAC binding constant; [2]): <1000 M⁻¹
Binding constant for sugar chain No. 932 (FAC binding constant; [2]): <1000 M⁻¹
Binding constant for sugar chain No. 933 (FAC binding constant; [2]): <1000 M⁻¹
Binding constant for sugar chain No. 001 (FAC binding constant; sugar chain having no fucose): <1000 M⁻¹
Binding constant for sugar chain No. 002 (FAC binding constant; sugar chain having no fucose): <1000 M⁻¹
Binding constant for sugar chain No. 003 (FAC binding constant; sugar chain having no fucose): <1000 M⁻¹
Binding constant for sugar chain No. 004 (FAC binding constant; sugar chain having no fucose): <1000 M⁻¹
Binding constant for sugar chain No. 005 (FAC binding constant; sugar chain having no fucose): <1000 M⁻¹
Binding constant for sugar chain No. 006 (FAC binding constant; sugar chain having no fucose): <1000 M⁻¹
Binding constant for sugar chain No. 007 (FAC binding constant; sugar chain having no fucose): <1000 M⁻¹
Binding constant for sugar chain No. 008 (FAC binding constant; sugar chain having no fucose): <1000 M⁻¹
Binding constant for sugar chain No. 009 (FAC binding constant; sugar chain having no fucose): <1000 M⁻¹
Binding constant for sugar chain No. 010 (FAC binding constant; sugar chain having no fucose): <1000 M⁻¹
Binding constant for sugar chain No. 011 (FAC binding constant; sugar chain having no fucose): <1000 M⁻¹
Binding constant for sugar chain No. 012 (FAC binding constant; sugar chain having no fucose): <1000 M⁻¹
Binding constant for sugar chain No. 013 (FAC binding constant; sugar chain having no fucose): <1000 M⁻¹
Binding constant for sugar chain No. 014 (FAC binding constant; sugar chain having no fucose): <1000 M⁻¹
Binding constant for sugar chain No. 101 (FAC binding constant; sugar chain having no fucose): <1000 M⁻¹
Binding constant for sugar chain No. 103 (FAC binding constant; sugar chain having no fucose): <1000 M⁻¹
Binding constant for sugar chain No. 104 (FAC binding constant; sugar chain having no fucose): <1000 M⁻¹
Binding constant for sugar chain No. 105 (FAC binding constant; sugar chain having no fucose): <1000 M⁻¹
Binding constant for sugar chain No. 107 (FAC binding constant; sugar chain having no fucose): <1000 M⁻¹
Binding constant for sugar chain No. 108 (FAC binding constant; sugar chain having no fucose): <1000 M⁻¹
Binding constant for sugar chain No. 301 (FAC binding constant; sugar chain having no fucose): <1000 M⁻¹
Binding constant for sugar chain No. 304 (FAC binding constant; sugar chain having no fucose): <1000 M⁻¹
Binding constant for sugar chain No. 305 (FAC binding constant; sugar chain having no fucose): <1000 M⁻¹
Binding constant for sugar chain No. 307 (FAC binding constant; sugar chain having no fucose): <1000 M⁻¹
Binding constant for sugar chain No. 308 (FAC binding constant; sugar chain having no fucose): <1000 M⁻¹
Binding constant for sugar chain No. 313 (FAC binding constant; sugar chain having no fucose): <1000 M⁻¹
Binding constant for sugar chain No. 314 (FAC binding constant; sugar chain having no fucose): <1000 M⁻¹
Binding constant for sugar chain No. 323 (FAC binding constant; sugar chain having no fucose): <1000 M⁻¹
Binding constant for sugar chain No. 501 (FAC binding constant; sugar chain having no fucose): <1000 M⁻¹
Binding constant for sugar chain No. 502 (FAC binding constant; sugar chain having no fucose): <1000 M⁻¹
Binding constant for sugar chain No. 503 (FAC binding constant; sugar chain having no fucose): <1000 M⁻¹
Binding constant for sugar chain No. 504 (FAC binding constant; sugar chain having no fucose): <1000 M⁻¹
Binding constant for sugar chain No. 701 (FAC binding constant; sugar chain having no fucose): <1000 M⁻¹
Binding constant for sugar chain No. 702 (FAC binding constant; sugar chain having no fucose): <1000 M⁻¹
Binding constant for sugar chain No. 703 (FAC binding constant; sugar chain having no fucose): <1000 M⁻¹
Binding constant for sugar chain No. 704 (FAC binding constant; sugar chain having no fucose): <1000 M⁻¹
Binding constant for sugar chain No. 705 (FAC binding constant; sugar chain having no fucose): <1000 M⁻¹
Binding constant for sugar chain No. 706 (FAC binding constant; sugar chain having no fucose): <1000 M⁻¹
Binding constant for sugar chain No. 707 (FAC binding constant; sugar chain having no fucose): <1000 M⁻¹
Binding constant for sugar chain No. 708 (FAC binding constant; sugar chain having no fucose): <1000 M⁻¹
Binding constant for sugar chain No. 709 (FAC binding constant; sugar chain having no fucose): <1000 M⁻¹
Binding constant for sugar chain No. 710 (FAC binding constant; sugar chain having no fucose): <1000 M⁻¹
Binding constant for sugar chain No. 711 (FAC binding constant; sugar chain having no fucose): <1000 M⁻¹
Binding constant for sugar chain No. 712 (FAC binding constant; sugar chain having no fucose): <1000 M⁻¹
Binding constant for sugar chain No. 713 (FAC binding constant; sugar chain having no fucose): <1000 M⁻¹
Binding constant for sugar chain No. 715 (FAC binding constant; sugar chain having no fucose): <1000 M⁻¹
Binding constant for sugar chain No. 716 (FAC binding constant; sugar chain having no fucose): <1000 M⁻¹
Binding constant for sugar chain No. 717 (FAC binding constant; sugar chain having no fucose): <1000 M⁻¹
Binding constant for sugar chain No. 724 (FAC binding constant; sugar chain having no fucose): <1000 M⁻¹
Binding constant for sugar chain No. 725 (FAC binding constant; sugar chain having no fucose): <1000 M⁻¹
Binding constant for sugar chain No. 732 (FAC binding constant; sugar chain having no fucose): <1000 M⁻¹
Binding constant for sugar chain No. 733 (FAC binding constant; sugar chain having no fucose): <1000 M⁻¹
Binding constant for sugar chain No. 734 (FAC binding constant; sugar chain having no fucose): <1000 M⁻¹
Binding constant for sugar chain No. 735 (FAC binding constant; sugar chain having no fucose): <1000 M⁻¹
Binding constant for sugar chain No. 736 (FAC binding constant; sugar chain having no fucose): <1000 M⁻¹
Binding constant for sugar chain No. 737 (FAC binding constant; sugar chain having no fucose): <1000 M⁻¹
Binding constant for sugar chain No. 738 (FAC binding constant; sugar chain having no fucose): <1000 M⁻¹
Binding constant for sugar chain No. 901 (FAC binding constant; sugar chain having no fucose): <1000 M⁻¹
Binding constant for sugar chain No. 902 (FAC binding constant; sugar chain having no fucose): <1000 M⁻¹
Binding constant for sugar chain No. 903 (FAC binding constant; sugar chain having no fucose): <1000 M⁻¹
Binding constant for sugar chain No. 905 (FAC binding constant; sugar chain having no fucose): <1000 M⁻¹
Binding constant for sugar chain No. 906 (FAC binding constant; sugar chain having no fucose): <1000 M⁻¹
Binding constant for sugar chain No. 907 (FAC binding constant; sugar chain having no fucose): <1000 M⁻¹
Binding constant for sugar chain No. 015 (FAC binding constant; sugar chain having α1→6 fucose): 500000 M⁻¹
Binding constant for sugar chain No. 201 (FAC binding constant; sugar chain having α1→6 fucose): 460000 M⁻¹
Binding constant for sugar chain No. 202 (FAC binding constant; sugar chain having α1→6 fucose): 400000 M⁻¹
Binding constant for sugar chain No. 203 (FAC binding constant; sugar chain having α1→6 fucose): 330000 M⁻¹
Binding constant for sugar chain No. 401 (FAC binding constant; sugar chain having α1→6 fucose): 350000 M⁻¹
Binding constant for sugar chain No. 402 (FAC binding constant; sugar chain having α1→6 fucose): 200000 M⁻¹
Binding constant for sugar chain No. 403 (FAC binding constant; sugar chain having α1→6 fucose): 340000 M⁻¹
Binding constant for sugar chain No. 404 (FAC binding constant; sugar chain having α1→6 fucose): 390000 M⁻¹
Binding constant for sugar chain No. 405 (FAC binding constant; sugar chain having α1→6 fucose): 320000 M⁻¹
Binding constant for sugar chain No. 406 (FAC binding constant; sugar chain having α1→6 fucose): 220000 M⁻¹
Binding constant for sugar chain No. 407 (FAC binding constant; sugar chain having α1→6 fucose): 280000 M⁻¹
Binding constant for sugar chain No. 410 (FAC binding constant; sugar chain having α1→6 fucose): 220000 M⁻¹
Binding constant for sugar chain No. 413 (FAC binding constant; sugar chain having α1→6 fucose): 280000 M⁻¹
Binding constant for sugar chain No. 418 (FAC binding constant; sugar chain having α1→6 fucose): 220000 M⁻¹
Binding constant for sugar chain No. 601 (FAC binding constant; sugar chain having α1→6 fucose): 240000 M⁻¹
Binding constant for sugar chain No. 602 (FAC binding constant; sugar chain having α1→6 fucose): 120000 M⁻¹
Substance: PhoSL: fucose α1→6 specific lectin that can be extracted from Pholiota squarrosa, SEQ ID No. 1 (APVPVTKLVCDGDTYKCTAYLDFGDGRWVAQWDTNVFHTG; not fully specified; ends and bridges not checked)
